Measured values from US20130253179A1, “Functionalization Processes and Reactants Used in Such Processes Using an Isatoic Anhydride or a Derivative Thereof, Biological Molecules Thus Treated and Kits” (priority 2010, published 2013).

Experiments:
HIV WT transcript = experiment: NASBA amplification of functionalised, captured and eluted HIV transcripts; assay type: biochemical
Protocol: In the preceding example 12, 4 μg of a WT HIV transcript (1083 nucleotides, internal production, bioMérieux batch 841470301, C=3.27E12 copies μl) was biotinylated with different concentrations of the compound (24) (0 mM, 15 mM, 30 mM, 120 mM, 180 mM, i.e. the experiments #1-7 of Table 6). This transcript was then captured on Merck MagPrep 25 Streptavidin magnetic particles, then, after rinsing, the particles were subjected to a 100 mM DTT treatment in PBS 1x pH 7 at 40° C. for one hour, in order to cleave the disulfide bond (SS) and elute the transcripts with —SH anthranilate groups, as shown in FIG. 16. We evaluated the ability of these transcripts to be amplified by the NASBA technology. This evaluation was performed as a comparison with an unfunctionalised “bare” HIV_WT transcript range.
The amplification is performed on a NucliSENS EasyQ instrument (bioMérieux, Lyon, France) and with a NucliSENS EasyQ HIV-1 V2.0 kit (bioMérieux, Lyon, France, ref. 285033, batch 09122106). The software used is NucliSENS EasyQ Director, and the protocol is QL1-60 1.0 (bioMérieux, Lyon, France).
After functionalisation with compound 24, capture and elution in 8 μL of 100 mM DTT, as described in example 12, the transcripts of experiments #2-5 from Table 7 were assayed on RNA 6000 NANO chip with the AGILENT bioanalyzer (Santa Clara, USA), and were diluted in the following concentrations: 1000 copies, 100 copies, 50 copies, 10 copies, 1 copy, 0 copies in 15 μl. An HIV IC transcript (internal control of the same amplified sequence as the WT (wild type) transcript, but detected by a molecular beacon carrying another fluorophore) diluted to 360 copies is added to the 15 μl volume, and will be present in all of the wells in which the amplifications occur. This transcript serves to monitor the correct operation of the amplification. The tests are carried out in triplicate.
Six Accuspheres ENZ II (NucliSENS EasyQ HIV-1 V2.0 kit, ref. 285033, bioMérieux, Lyon, France) are deposited into a 1.5 ml polypropylene tube. A volume of 270 μL of ENZdil H (NucliSENS EasyQ HIV-1 V2.0 kit, ref. 285033, bioMérieux, Lyon, France) is added onto the Accuspheres, and 15 minutes are allowed to pass, for them to dissolve completely. The twelve Accuspheres PRM H (NucliSENS EasyQ HIV-1 V2.0 kit, ref. 285033, bioMérieux, Lyon, France) are deposited into a 1.5 ml polypropylene tube 1080 μL of PRMdi l H (NucliSENS EasyQ HIV-1 V2.0 kit, ref. 285033, bioMérieux, Lyon, France) is added onto these Accuspheres and the mixture is immediately vortex stirred until the Accuspheres dissolve completely. After complete dissolution in the two tubes (mix ENZ II and mix PRM H), these mixtures are centrifuged with a benchtop centrifuge. […]

SMILES | Minimum number of copies detected (HIV WT transcript; 15 mM functionalisation reagent) [copies] | Minimum number of copies detected (HIV WT transcript; 30 mM functionalisation reagent) [copies] | Minimum number of copies detected (HIV WT transcript; 120 mM functionalisation reagent) [copies] | Minimum number of copies detected (HIV WT transcript; 180 mM functionalisation reagent) [copies] | solubility (Solubility in water) [mM]
Cn1c(=O)oc(=O)c2cc(NC(=O)CCSSCCNC(=O)CCOCCOCCOCCOCCNC(=O)CCCCC3SCC4NC(=O)NC43)ccc21 (centres unmarked) [5Biot PEG4 SS IA Me 24] | 10 | 10 | 100 | 1000 | –
CCN1/C(=C\C=C\C2=[N+](CCCCCC(=O)Nc3ccc4c(c3)c(=O)oc(=O)n4C)c3ccc(S(=O)(=O)[O-])cc3C2(C)C)C(C)(C)c2cc(S(=O)(=O)[O-])ccc21.[K+] [Cy3 IA Me 13, 1-methyl 5-Cy3-isatoic anhydride] | – | – | – | – | > 100
